12 molecules from ChEMBL document CHEMBL3085678, “3-Azatetracyclo[5.2.1.1(5,8).0(1,5)]undecane derivatives: from wild-type inhibitors of the M2 ion channel of influenza A virus to derivatives with potent activity against the V27A mutant” (J Med Chem, 2013) can be followed below.

In experiment [1] the test system is Influenza A virus. Nature of the experiment: Antiviral activity against Influenza A virus (A/Puerto Rico/8/34(H1N1)) harboring M2 channel S31N and V27T mutant infected in MDCK cells assessed as reduction of cytopathic effect after 72 hrs by MTS assay. Type of experiment: functional, organism-based, A/Puerto Rico/8/1934(H1N1). On the technique in general: Cytopathic effects are the visible damage that an infection or toxin causes in cultured cells.

Experiment [2] concerns H3N2 subtype. The experiment is described as follows: Antiviral activity against Influenza A virus (A/Hong Kong/7/1987(H3N2)) harboring wild type M2 channel infected in MDCK cells assessed as reduction of cytopathic effect after 72 hrs by microsocopic analysis. Type of experiment: functional, organism-based.
The test system of experiment [3] is Influenza B virus. The experiment is described as follows: Antiviral activity against Influenza B virus (B/Hong Kong/05/1972) harboring wild type M2 channel infected in MDCK cells assessed as reduction of cytopathic effect after 72 hrs by MTS assay. It counts as functional, cell-based. The following applies: B/Hong Kong/05/1972, MDCK.
The subject of experiment [4] is Influenza B virus. The experiment is described as follows: Antiviral activity against Influenza B virus (B/Hong Kong/05/1972) harboring wild type M2 channel infected in MDCK cells assessed as reduction of cytopathic effect after 72 hrs by microsocopic analysis. It counts as functional, cell-based. As to conditions: B/Hong Kong/05/1972, MDCK.
Experiment [5] deals with H3N2 subtype. The experiment is described as follows: Antiviral activity against Influenza A virus (A/Hong Kong/7/1987(H3N2)) harboring wild type M2 channel infected in MDCK cells assessed as reduction of cytopathic effect after 72 hrs by MTS assay. It counts as functional, organism-based.
Experiment [6] deals with Influenza A virus. Nature of the experiment: Antiviral activity against Influenza A virus (A/Puerto Rico/8/34(H1N1)) harboring M2 channel S31N and V27T mutant infected in MDCK cells assessed as reduction of cytopathic effect after 72 hrs by microsocopic analysis. It counts as functional, organism-based, A/Puerto Rico/8/1934(H1N1).
For experiment [7], the system named is H3N2 subtype. The experiment is described as follows: Antiviral activity against Influenza A virus (A/Hong Kong/7/1987(H3N2)) harboring wild type M2 channel infected in MDCK cells assessed as concentration required to 2 log10 reduction of virus yield after 24 hrs by RT-PCR analysis. Type of experiment: functional.

As usually defined, the EC50 is the midpoint of the concentration-response curve. Broadly, the EC99 is the concentration at which the effect reaches the 99% level.

`CC12CC34CNCC3(C1)CC2(C)C4`: the concentration giving a half-maximal response (EC50) in the experiment with Influenza A virus [1] was above 100 µM; in the experiment with H3N2 subtype [2], 1.6 µM; with Influenza B virus [3], above 100 µM; in the experiment with Influenza B virus [4], above 100 µM; in the experiment with H3N2 subtype [5], above 100 µM; with Influenza A virus [6], above 100 µM.

Take `CN1CC23CC4(C)CC2(C1)CC4(C)C3`: the EC50 with Influenza A virus [1], in the experiment with H3N2 subtype [2], with Influenza B virus [3], with Influenza B virus [4], with H3N2 subtype [5] and in the experiment with Influenza A virus [6] was above 100 µM in each case.

With `CC12CC34CN(C(=N)N)CC3(C1)CC2(C)C4`, the half-maximal effective concentration (EC50) in the experiment with Influenza A virus [1], in the experiment with H3N2 subtype [2], in the experiment with Influenza B virus [3], with Influenza B virus [4], with H3N2 subtype [5] and in the experiment with Influenza A virus [6] was above 100 µM throughout.

In the case of `C1NCC23CC4CC12CC4C3`, the EC50 with Influenza A virus [1] is above 100 µM; with H3N2 subtype [2] it was 7.9 µM; with Influenza B virus [3] it was above 100 µM; in the experiment on Influenza B virus [4], above 100 µM; in the experiment with H3N2 subtype [5], 7.2 µM; in the experiment on Influenza A virus [6] it was above 100 µM.

For `CN1CC23CC4CC2(CC4C3)C1`, the concentration for a half-maximal effect (EC50) in the experiment with Influenza A virus [1], with H3N2 subtype [2], with Influenza B virus [3], in the experiment on Influenza B virus [4], with H3N2 subtype [5] and with Influenza A virus [6] was above 100 µM in each case.

In the case of `N=C(N)N1CC23CC4CC2(CC4C3)C1`, the half-maximal effective concentration (EC50) in the experiment with Influenza A virus [1], in the experiment with H3N2 subtype [2], in the experiment with Influenza B virus [3], with Influenza B virus [4], in the experiment on H3N2 subtype [5] and with Influenza A virus [6] was above 50 µM throughout.

On to `CCC12CC34CNCC3(C1)CC2(CC)C4`, for which the EC50 with Influenza A virus [1], in the experiment on H3N2 subtype [2], with Influenza B virus [3], in the experiment with Influenza B virus [4], in the experiment with H3N2 subtype [5] and in the experiment with Influenza A virus [6] was above 100 µM in each case.

Consider `CCC12CC34CN(C(=N)N)CC3(C1)CC2(CC)C4`, for which the EC50 with Influenza A virus [1], with H3N2 subtype [2], in the experiment on Influenza B virus [3], in the experiment on Influenza B virus [4], in the experiment on H3N2 subtype [5] and in the experiment on Influenza A virus [6] was above 100 µM throughout.

Turning to `C1CCC23CC45CNCC4(CC2(C1)C5)C3`, the EC50 with Influenza A virus [1], in the experiment with H3N2 subtype [2], in the experiment on Influenza B virus [3], with Influenza B virus [4], in the experiment with H3N2 subtype [5] and with Influenza A virus [6] was above 100 µM throughout.

As for `N=C(N)N1CC23CC45CCCCC4(C2)CC3(C1)C5`, the 50% effective concentration (EC50) with Influenza A virus [1], in the experiment with H3N2 subtype [2], in the experiment with Influenza B virus [3], in the experiment on Influenza B virus [4], in the experiment on H3N2 subtype [5] and in the experiment with Influenza A virus [6] was above 100 µM throughout.

On to `NC12CC3CC(CC(C3)C1)C2` [AMANTADINE], for which the EC50 in the experiment with Influenza A virus [1] is 38 µM; in the experiment with H3N2 subtype [2], 0.84 µM; in the experiment with Influenza B virus [3] it was above 500 µM; with Influenza B virus [4], above 500 µM; in the experiment on H3N2 subtype [5], 0.82 µM; in the experiment with Influenza A virus [6], 34 µM.

Take `CC(N)C12CC3CC(CC(C3)C1)C2` (stereo not drawn) [RIMANTADINE]: the concentration for a half-maximal effect (EC50) in the experiment on Influenza A virus [1] was 4.3 µM; in the experiment on H3N2 subtype [2], 0.62 µM; in the experiment on Influenza B virus [3] it was above 500 µM; in the experiment with Influenza B virus [4], above 500 µM; in the experiment on H3N2 subtype [5], 0.12 µM; with Influenza A virus [6] it was 18 µM. Also, in the experiment on H3N2 subtype [7], the EC99 is above 4 µM.
